# Tested on: HCV pseudoparticles (genotype 1a HCV E1 and E2 envelope, H77C isolate)
# Assay: microbe, parasite or virus in culture
# Format: cell-based
# Conditions: Hepatitis C virus, Huh-7, 48 h, HCV pseudoparticle infection of Huh7 cells, luciferase 2 days after infection; average of duplicates
row,Compound,EC50 [nM]
1,"CN(C)C(=O)C(=O)NC[C@H](NC(=O)c1ccc(Nc2nc(NC3(c4ccc(Cl)cc4)CC3)nc(OCC(F)(F)F)n2)cc1)C(=O)OCCN1CCOCC1 [Compound 1022, (S)-2-morpholinoethyl 2-(4-(4-(1-(4-chlorophenyl)cyclopropylamino)-6-(2,2,2-trifluoroethoxy)-1,3,5-triazin-2-ylamino)benzamido)-3-(2-(dimethylamino)-2-oxoacetamido)propanoate]",7.11
2,C[C@H](NC(=O)C(=O)NCC[C@H](NC(=O)c1ccc(Nc2nc(NC3(c4ccc(Cl)cc4)CC3)nc(OCC(F)(F)F)n2)cc1)C(=O)O)C1CC1 [Compound 1435],0.11

# Same assay, conditions: Hepatitis C virus, Huh-7, 48 h, HCV pseudoparticles (genotype 1a, H77C) in Huh7 cells; average of duplicate; luciferase 2 days after infection
row,Compound,EC50 [nM]
1,CCc1ccc(NC(=O)C(=O)NC[C@H](NC(=O)c2ccc(Nc3nc(NC4(c5ccc(Cl)cc5)CC4)nc(OCC(F)(F)F)n3)cc2)C(=O)O)cc1 [Compound 3296],0.24
2,CC(CNC(=O)C(=O)Nc1cc(F)cc(F)c1)CNC(=O)c1ccc(Nc2nc(NC3(c4ccc(Cl)cc4)CC3)nc(OCC(F)(F)F)n2)cc1 (stereo not drawn) [Compound 3469],0.035
3,"O=C(Nc1cccc(F)c1)C(=O)N[C@H](CCNC(=O)c1ccc(Nc2nc(NC3(c4ccc(Cl)cc4)CC3)nc(OCC(F)(F)F)n2)cc1)C(=O)O [Compound 3492, (R)-4-(4-((4-((1-(4-chlorophenyl)cyclopropyl)amino)-6-(2,2,2-trifluoroethoxy)-1,3,5-triazin-2-yl)amino)benzamido)-2-(2-((3-fluorophenyl)amino)-2-oxoacetamido)butanoic acid]",0.33
4,COC(=O)[C@H](CNC(=O)C(=O)Nc1ccc(Cc2ccccc2)cc1)NC(=O)c1ccc(Nc2nc(NC3(c4ccc(Cl)cc4)CC3)nc(OCC(F)(F)F)n2)cc1 [Compound 3091],2.85

# Same assay, conditions: Hepatitis C virus, Huh-7, 48 h, read-out: Activity (EC50 class), HCV pseudoparticle infection of Huh7 cells, luciferase 2 days after infection; EC50 expressed as class A/B
row,Compound,EC50 [nM]
1,"CN(C)C(=O)C(=O)NC[C@H](NC(=O)c1ccc(Nc2nc(NC3(c4ccc(Cl)cc4)CC3)nc(OCC(F)(F)F)n2)cc1)C(=O)OCCN1CCOCC1 [Compound 1022, (S)-2-morpholinoethyl 2-(4-(4-(1-(4-chlorophenyl)cyclopropylamino)-6-(2,2,2-trifluoroethoxy)-1,3,5-triazin-2-ylamino)benzamido)-3-(2-(dimethylamino)-2-oxoacetamido)propanoate]",0.01 to 10
2,CN1CCCC1CCNC(=O)C(=O)NC[C@H](NC(=O)c1ccc(Nc2nc(NC3(c4ccc(Cl)cc4)CC3)nc(OCC(F)(F)F)n2)cc1)C(=O)O (stereo partly drawn) [Compound 1040],10 to 1000
3,O=C(NC[C@H](NC(=O)c1ccc(Nc2nc(NC3(c4ccc(Cl)cc4)CC3)nc(OCC(F)(F)F)n2)cc1)C(=O)O)C(=O)NC1(Cc2ccccc2)CC1 [Compound 1415],0.01 to 10
4,O=C(NCC[C@H](NC(=O)c1ccc(Nc2nc(NC3(c4ccc(Cl)cc4)CC3)nc(OCC(F)(F)F)n2)cc1)C(=O)O)C(=O)NCC1(Cn2ccnc2)CC1 [Compound 1429],0.01 to 10
5,C[C@H](NC(=O)C(=O)NCC[C@H](NC(=O)c1ccc(Nc2nc(NC3(c4ccc(Cl)cc4)CC3)nc(OCC(F)(F)F)n2)cc1)C(=O)O)C1CC1 [Compound 1435],0.01 to 10
6,COc1ccccc1NC(=O)C(=O)NCC[C@H](NC(=O)c1ccc(Nc2nc(NC3(c4ccc(Cl)cc4)CC3)nc(OCC(F)(F)F)n2)cc1)C(=O)O [Compound 1276],0.01 to 10
7,Cc1cccc(C2CC2CNC(=O)C(=O)NCC[C@H](NC(=O)c2ccc(Nc3nc(NC4(c5ccc(Cl)cc5)CC4)nc(OCC(F)(F)F)n3)cc2)C(=O)O)c1 (stereo partly drawn) [Compound 1434],0.01 to 10
8,COc1ccccc1CCNC(=O)C(=O)NCC[C@H](NC(=O)c1ccc(Nc2nc(NC3(c4ccc(Cl)cc4)CC3)nc(OCC(F)(F)F)n2)cc1)C(=O)O [Compound 1329],0.01 to 10
9,C[C@@H](NC(=O)C(=O)NC[C@H](NC(=O)c1ccc(Nc2nc(NC3(c4ccc(Cl)cc4)CC3)nc(OCC(F)(F)F)n2)cc1)C(=O)O)C1CCCCC1 [Compound 1476],0.01 to 10
10,COC(=O)[C@H](CCNC(=O)C(=O)Nc1cccnc1)NC(=O)c1ccc(Nc2nc(NC3(c4ccc(Cl)cc4)CC3)nc(OCC(F)(F)F)n2)cc1 [Compound 1238],0.01 to 10
11,COC(=O)[C@H](CNC(=O)C(=O)NC1CCCC(O)C1)NC(=O)c1ccc(Nc2nc(NC3(c4ccc(Cl)cc4)CC3)nc(OCC(F)(F)F)n2)cc1 (stereo partly drawn) [Compound 1056],0.01 to 10
12,CC(C)(CNC(=O)C(=O)Nc1cccc(-c2nn[nH]n2)c1)CNC(=O)c1ccc(Nc2nc(NC3(c4ccc(Cl)cc4)CC3)nc(OCC(F)(F)F)n2)cc1 [Compound 1489],0.01 to 10
13,CC(C)(CNC(=O)C(=O)Nc1ccc(O)cc1)CNC(=O)c1ccc(Nc2nc(NCc3ccc(O)cc3)nc(OCC(F)(F)F)n2)cc1 [Compound 1496],0.01 to 10
14,COC(=O)[C@H](CCNC(=O)C(=O)Nc1ccc(-c2ccncc2)cc1)NC(=O)c1ccc(Nc2nc(NC3(c4ccc(Cl)cc4)CC3)nc(OCC(F)(F)F)n2)cc1 [Compound 1517],0.01 to 10
15,"CC(C)(CNC(=O)C(N)=O)CNC(=O)c1ccc(Nc2nc(NC3(c4ccc(Cl)cc4)CC3)nc(OCC(F)(F)F)n2)cc1 [Compound 1552, N^1-(3-(4-((4-((1-(4-chlorophenyl)cyclopropyl)amino)-6-(2,2,2-trifluoroethoxy)-1,3,5-triazin-2-yl)amino)benzamido)-2,2-dimethylpropyl)oxalamide]",0.01 to 10
16,Cc1ccc(C2CC2CNC(=O)C(=O)NCC[C@H](NC(=O)c2ccc(Nc3nc(NC4(c5ccc(Cl)cc5)CC4)nc(OCC(F)(F)F)n3)cc2)C(=O)O)cc1 (stereo partly drawn) [Compound 1444],0.01 to 10
17,COC(=O)[C@H](CCNC(=O)C(=O)NCCc1cccc(F)c1)NC(=O)c1ccc(Nc2nc(NC3(c4ccc(Cl)cc4)CC3)nc(OCC(F)(F)F)n2)cc1 [Compound 1312],0.01 to 10
18,CCC1CCC(NC(=O)C(=O)NCC[C@H](NC(=O)c2ccc(Nc3nc(NC4(c5ccc(Cl)cc5)CC4)nc(OCC(F)(F)F)n3)cc2)C(=O)O)CC1 (stereo partly drawn) [Compound 1121],0.01 to 10

# Same assay, conditions: Hepatitis C virus, Huh-7, 48 h, read-out: Activity (EC50 class), HCV pseudoparticles, Huh7 cells, luciferase 2 days after infection; average of duplicates
row,Compound,EC50 [nM]
1,O=C(NCC[C@H](NC(=O)c1ccc(Nc2nc(NC3(c4ccc(Cl)cc4)CC3)nc(OCC(F)(F)F)n2)cc1)C(=O)O)C(=O)Nc1cccc(C(=O)Nc2ccccc2)c1 [Compound 3617],0.01 to 10
2,O=C(NC[C@H](NC(=O)c1ccc(Nc2nc(NC3(c4ccc(Cl)cc4)CC3)nc(OCC(F)(F)F)n2)cc1)C(=O)O)C(=O)Nc1cccc(Cc2ccccc2)c1 [Compound 3770],0.01 to 10
3,Cc1cc2nc(NC(=O)C(=O)NCC(C)(C)CNC(=O)c3ccc(Nc4nc(NC5(c6ccc(Cl)cc6)CC5)nc(OCC(F)(F)F)n4)cc3)sc2cc1C [Compound 3820],0.01 to 10
4,O=C(NC[C@H](NC(=O)c1ccc(Nc2nc(NC3(c4ccc(Cl)cc4)CC3)nc(OCC(F)(F)F)n2)cc1)C(=O)Cl)C(=O)Nc1cccc(-c2c[nH]cn2)c1 [Compound 3787],0.01 to 10
5,CC(C)(CNC(=O)C(=O)Nc1ccc(C#N)cc1)CNC(=O)c1ccc(Nc2nc(NC3(c4ccc(Cl)cc4)CC3)nc(OCc3ccc(OC(F)(F)F)cc3)n2)cc1 [Compound 3852],0.01 to 10
6,Cc1ccc(-c2cccc(NC(=O)C(=O)NCC[C@H](NC(=O)c3ccc(Nc4nc(NC5(c6ccc(Cl)cc6)CC5)nc(OCC(F)(F)F)n4)cc3)C(=O)O)c2)cc1 [Compound 3644],0.01 to 10
7,O=C(NC[C@H](NC(=O)c1ccc(Nc2nc(NC3(c4ccc(Cl)cc4)CC3)nc(OCC(F)(F)F)n2)cc1)C(=O)O)C(=O)Nc1ccc(Oc2cccnc2)nc1 [Compound 3755],0.01 to 10

# Same assay, conditions: Hepatitis C virus, Huh-7, read-out: Activity (EC50 class), HCV pseudoparticles (genotype 1a, H77C) in Huh7 cells; EC50 expressed as class A/B
row,Compound,EC50 [nM]
1,COC(=O)[C@H](CNC(=O)C(=O)Nc1ccc(Oc2ccncc2)cc1)NC(=O)c1ccc(Nc2nc(NC3(c4ccc(Cl)cc4)CC3)nc(OCC(F)(F)F)n2)cc1 [Compound 3206],0.01 to 10
2,COC(=O)/C(CCNC(=O)C(=O)Nc1ccc(Oc2ccccc2)nc1)=N\C(=O)c1ccc(Nc2nc(NC3(c4ccc(Cl)cc4)CC3)nc(OCC(F)(F)F)n2)cc1 [Compound 3593],0.01 to 10
3,CCc1ccc(NC(=O)C(=O)NC[C@H](NC(=O)c2ccc(Nc3nc(NC4(c5ccc(Cl)cc5)CC4)nc(OCC(F)(F)F)n3)cc2)C(=O)O)cc1 [Compound 3296],0.01 to 10
4,CC(CNC(=O)C(=O)Nc1cc(F)cc(F)c1)CNC(=O)c1ccc(Nc2nc(NC3(c4ccc(Cl)cc4)CC3)nc(OCC(F)(F)F)n2)cc1 (stereo not drawn) [Compound 3469],0.01 to 10
5,Cc1noc2ccc(NC(=O)C(=O)NCC(C)(C)CNC(=O)c3ccc(Nc4nc(NC5(c6ccc(Cl)cc6)CC5)nc(OCC(F)(F)F)n4)cc3F)cc12 [Compound 3565],0.01 to 10
6,COC(=O)[C@H](CCNC(=O)C(=O)Nc1ccc(Cn2ccnc2C)cc1)NC(=O)c1ccc(Nc2nc(NC3(c4ccc(Cl)cc4)CC3)nc(OCC(F)(F)F)n2)cc1 [Compound 3321],10 to 1000
7,COc1ccc(C2(Nc3nc(Nc4ccc(C(=O)NCC(C)(C)CNC(=O)C(N)=O)cc4)nc(OCC(F)(F)F)n3)CC2)cc1C(F)(F)F [Compound 3351],0.01 to 10
8,CCc1ccccc1NC(=O)C(=O)NCC(C)(C)CNC(=O)c1ccc(Nc2nc(NC3(c4ccc(Cl)cc4)CC3)nc(OCC(F)(F)F)n2)cc1 [Compound 3047],0.01 to 10
9,CC(C)(CNC(=O)C(=O)Nc1cccnc1)CNC(=O)c1ccc(Nc2nc(NC3(c4ccc(Cl)cc4)CC3)nc(OCC(F)(F)F)n2)cc1 [Compound 3245],0.01 to 10
10,COC(=O)/C(CCNC(=O)C(=O)Nc1ccc(C(F)(F)F)nc1)=N\C(=O)c1ccc(Nc2nc(NC3(c4ccc(Cl)cc4)CC3)nc(OCC(F)(F)F)n2)cc1 [Compound 3594],0.01 to 10
11,"O=C(Nc1cccc(F)c1)C(=O)N[C@H](CCNC(=O)c1ccc(Nc2nc(NC3(c4ccc(Cl)cc4)CC3)nc(OCC(F)(F)F)n2)cc1)C(=O)O [Compound 3492, (R)-4-(4-((4-((1-(4-chlorophenyl)cyclopropyl)amino)-6-(2,2,2-trifluoroethoxy)-1,3,5-triazin-2-yl)amino)benzamido)-2-(2-((3-fluorophenyl)amino)-2-oxoacetamido)butanoic acid]",0.01 to 10
12,CC(C)(CNC(=O)c1ccc(Nc2nc(NC3(c4ccc(Cl)cc4)CC3)nc(OCC(F)(F)F)n2)cc1)NC(=O)C(=O)Nc1ccc(F)cc1 [Compound 3418],0.01 to 10
13,CC(C)(CNC(=O)C(=O)Oc1cncs1)CNC(=O)c1ccc(Nc2nc(NC3(c4ccc(Cl)cc4)CC3)nc(OCC(F)(F)F)n2)cc1 [Compound 3179],0.01 to 10
14,NC(=O)C(=O)NCCCNC(=O)c1ccc(Nc2nc(NC3(c4ccc(Cl)cc4)CC3)nc(OCC(F)(F)F)n2)cc1 [Compound 3342],0.01 to 10
15,Cc1ccc(NC(=O)C(=O)NCC(C)(C)CNC(=O)c2ccc(Nc3nc(NC4(c5ccc(Cl)cc5)CC4)nc(OCC(F)(F)F)n3)cc2)c(C(F)(F)F)c1 [Compound 3455],0.01 to 10
16,Cc1ccc(NC(=O)C(=O)NCC(C)(C)CNC(=O)c2ccc(Nc3nc(NC4(c5ccc(Cl)cc5)CC4)nc(OCC(F)(F)F)n3)cc2)c(C)n1 [Compound 3073],0.01 to 10
17,COC(=O)[C@H](CNC(=O)C(=O)Nc1ccc(C)cc1)NC(=O)c1ccc(Nc2nc(NC3(c4ccc(Cl)cc4)CC3)nc(OCC(F)(F)F)n2)cc1 [Compound 3085],0.01 to 10
18,COC(=O)[C@H](CNC(=O)C(=O)Nc1ccc(Oc2ccccc2)cc1)NC(=O)c1ccc(Nc2nc(NC3(c4ccc(Cl)cc4)CC3)nc(OCC(F)(F)F)n2)cc1 [Compound 3082],0.01 to 10
19,COC(=O)[C@H](CNC(=O)C(=O)Nc1ccc(Cc2ccccc2)cc1)NC(=O)c1ccc(Nc2nc(NC3(c4ccc(Cl)cc4)CC3)nc(OCC(F)(F)F)n2)cc1 [Compound 3091],0.01 to 10
20,COC(=O)[C@H](CNC(=O)C(=O)Nc1ccc(S(N)(=O)=O)cc1)NC(=O)c1ccc(Nc2nc(NC3(c4ccc(Cl)cc4)CC3)nc(OCC(F)(F)F)n2)cc1 [Compound 3087],0.01 to 10
